System: flank organ
Test: topical antiandrogenic activity test (hamster flank organ, Voigt and Hsia)
Assay type: in vivo, hamsters
Conditions: 21 days
Protocol: The test was carried out on sexually immature female hamsters aged 6-8 weeks and weighing 65-90 grams.
At the beginning of the tests, the back of each animal was shaved to evidence the respective flank organ bilaterally. Animals were then subdivided into homogeneous groups and treated daily for 21 consecutive days. The tested steroids were dissolved at concentrations ranging from 100 to 400 micrograms in 50 microliters of an acetone solution containing 4 micrograms of testosterone propionate (TP) or 4 micrograms of dihydrotestosterone (DHT). 50 microliters of the solutions were applied to the right flank organ, while the contralateral organ used as individual control received only acetone (50 microliters). Control groups received TP or DHT alone, following the same procedures.
At the end of the tests, the animals were killed under ether anesthesia and the whole skine of the back was taken. The area of both flank organs was measured, separately, with transillumination. The mean differences between areas treated with the tested steroids and those treated with the carrier alone were calculated for each group, and said mean differences were compared, as inhibition percentages, to the mean differences between the areas in the control groups treated with either TP or DHT.

[1] = androgen alone (control group), 4 μg daily, topical
[2] = DHT 4 μg + compound 400 μg daily, topical on right flank organ, female hamsters
[3] = TP 4 μg + compound 400 μg daily, topical on right flank organ, female hamsters
[4] = versus DHT control, DHT 4 μg + compound 400 μg daily, topical
[5] = versus TP control, TP 4 μg + compound 400 μg daily, topical

SMILES: C[C@]12CCC(=O)C[C@@H]1CC[C@@H]1[C@@H]2CC[C@]2(C)[C@@H](O)CC[C@@H]12 [DHT, dihydrotestosterone, reference compound]
- Mean difference of the areas [1]: 20.8 ± 2.5 mm^2

SMILES: CCC(=O)O[C@H]1CC[C@H]2[C@@H]3CCC4=CC(=O)CC[C@]4(C)[C@H]3CC[C@]12C [TP, testosterone propionate, reference compound]
- Mean difference of the areas [1]: 22.7 ± 2.3 mm^2

SMILES: CCCC(=O)OCC(=O)[C@@]1(O)CC[C@H]2[C@@H]3CCC4=CC(=O)CC[C@]4(C)C3=CC[C@@]21C [Ex. 2, 17α-hydroxy-21-butanoyl-pregna-4,9-diene-3,20-dione]
- Mean difference of the areas [2]: 4.1 ± 0.5 mm^2
- Mean difference of the areas [3]: 3.3 ± 1.2 mm^2
- % inhibition [4]: 80%
- % inhibition [5]: 85%

SMILES: CCCC(=O)OCC(=O)[C@@]1(OC(=O)CCC)CC[C@H]2[C@@H]3CCC4=CC(=O)CC[C@]4(C)C3=CC[C@@]21C [Ex. 1, 17α,21-dibutanoyl-pregna-4,9-diene-3,20-dione]
- Mean difference of the areas [2]: 3.7 ± 0.7 mm^2
- Mean difference of the areas [3]: 2.4 ± 1.1 mm^2
- % inhibition [4]: 82%
- % inhibition [5]: 89%

SMILES: CCC(=O)O[C@]1(C(=O)CO)CC[C@H]2[C@@H]3CCC4=CC(=O)CC[C@]4(C)C3=CC[C@@]21C [Compound A, 17α-propionyl-21-hydroxy-pregna-4,9-diene-3,20-dione]
- Mean difference of the areas [2]: 9.7 ± 1.8 mm^2
- Mean difference of the areas [3]: 3.7 ± 1.1 mm^2
- % inhibition [4]: 53%
- % inhibition [5]: 84%

From US8143240B2, “17α, 21-dihydroxypregnene esters as antiandrogenic agents” (Cosmo S.p.A., priority 2001, dated 2012)
